According to patent US10479795B2 (Incyte Corporation, priority 2016, dated 2019):
Structures can show the parent of a compound that is named as a salt. Where two headings read alike, the source gives them in different places.

Columns and labels:
[1] = molecular target: PI3Kγ (p110γ) Recombinant Human Protein (Homo sapiens (Human), UniProt P48736); test: PI3K-γ Scintillation Proximity Assay; format: biochemical; conditions: read-out: PI3Kγ IC50
Procedure, shortened: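 Radiometric SPA readout: […] bound to WGA beads after overnight shaking, IC50 derived from % activity of DMSO control. Reaction used human p110γ, 2 μM ATP, 20 μM PIP2, pH 6.7 MOPS buffer with MgCl2, DTT, CHAPS, 2% DMSO, room temperature.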

[2] = test system: Phosphorylated Ribosomal Protein S6 (RPS6); test: THP-1 RPS6 ELISA Assay; format: cell-based, Human; conditions: THP-1 cells, read-out: PI3Kγ_THP1_RPS6_ELISA IC50
Procedure, shortened: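 IC50 values come from a curve of percent inhibition against log compound concentration, using phospho-RPS6 ELISA (450 nm) on THP-1 lysates. Cells were serum-starved overnight, exposed to compound for 2 h at 37 °C, then challenged 15 min with 10 nM MCP-1.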

[3] = molecular target: PI3Kδ (p110δ/p85α) Recombinant Human Protein (Homo sapiens (Human), UniProt O00329); test: PI3Kδ Scintillation Proximity Assay; format: biochemical
Chain of PI3Kδ (p110δ/p85α) Recombinant Human Protein (O00329 whole entry): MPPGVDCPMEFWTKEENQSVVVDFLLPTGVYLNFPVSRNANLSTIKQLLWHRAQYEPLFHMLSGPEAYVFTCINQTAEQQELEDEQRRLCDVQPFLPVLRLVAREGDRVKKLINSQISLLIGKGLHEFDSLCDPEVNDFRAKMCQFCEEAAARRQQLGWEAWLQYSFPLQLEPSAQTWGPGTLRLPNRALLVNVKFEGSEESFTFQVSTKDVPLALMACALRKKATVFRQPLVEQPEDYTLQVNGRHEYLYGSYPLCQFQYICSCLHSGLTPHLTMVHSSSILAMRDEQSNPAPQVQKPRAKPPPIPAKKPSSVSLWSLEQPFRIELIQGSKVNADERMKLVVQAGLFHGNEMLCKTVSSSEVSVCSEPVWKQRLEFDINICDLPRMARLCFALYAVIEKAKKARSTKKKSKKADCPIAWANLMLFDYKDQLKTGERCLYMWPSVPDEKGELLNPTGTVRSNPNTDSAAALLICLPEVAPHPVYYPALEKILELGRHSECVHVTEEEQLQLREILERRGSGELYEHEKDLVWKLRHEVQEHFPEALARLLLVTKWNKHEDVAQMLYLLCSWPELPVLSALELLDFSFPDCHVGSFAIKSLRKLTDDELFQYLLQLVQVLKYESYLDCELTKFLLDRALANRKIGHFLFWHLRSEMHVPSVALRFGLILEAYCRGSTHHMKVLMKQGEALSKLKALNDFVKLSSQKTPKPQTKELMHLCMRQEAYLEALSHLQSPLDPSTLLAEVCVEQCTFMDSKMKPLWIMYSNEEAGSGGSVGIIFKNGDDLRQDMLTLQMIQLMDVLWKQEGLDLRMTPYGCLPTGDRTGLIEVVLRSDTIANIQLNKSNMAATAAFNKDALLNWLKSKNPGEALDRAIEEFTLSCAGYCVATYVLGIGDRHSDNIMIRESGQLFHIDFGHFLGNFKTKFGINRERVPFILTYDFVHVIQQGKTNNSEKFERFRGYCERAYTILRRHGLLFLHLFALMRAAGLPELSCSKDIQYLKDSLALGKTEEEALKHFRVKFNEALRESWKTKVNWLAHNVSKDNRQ
Chain of PI3Kδ (p110δ/p85α) Recombinant Human Protein (P27986 whole entry partner): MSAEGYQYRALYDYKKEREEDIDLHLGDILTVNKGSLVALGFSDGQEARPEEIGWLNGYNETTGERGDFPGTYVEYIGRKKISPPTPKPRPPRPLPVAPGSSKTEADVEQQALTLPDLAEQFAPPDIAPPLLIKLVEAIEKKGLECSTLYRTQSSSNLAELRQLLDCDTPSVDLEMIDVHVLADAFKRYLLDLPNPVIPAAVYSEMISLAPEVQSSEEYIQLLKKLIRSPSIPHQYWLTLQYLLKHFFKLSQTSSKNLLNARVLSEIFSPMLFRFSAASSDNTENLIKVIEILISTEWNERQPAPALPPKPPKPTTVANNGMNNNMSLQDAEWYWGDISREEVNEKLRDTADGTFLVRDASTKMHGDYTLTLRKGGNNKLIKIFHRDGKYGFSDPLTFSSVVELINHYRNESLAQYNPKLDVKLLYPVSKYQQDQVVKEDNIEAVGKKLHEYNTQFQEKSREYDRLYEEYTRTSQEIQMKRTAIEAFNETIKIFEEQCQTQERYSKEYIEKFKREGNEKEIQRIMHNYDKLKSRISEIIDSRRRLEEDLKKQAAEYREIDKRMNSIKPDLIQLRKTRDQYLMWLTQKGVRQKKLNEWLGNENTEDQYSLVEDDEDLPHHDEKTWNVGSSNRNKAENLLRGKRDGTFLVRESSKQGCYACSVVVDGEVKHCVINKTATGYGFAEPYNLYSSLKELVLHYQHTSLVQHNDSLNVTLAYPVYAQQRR
Procedure, shortened: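 Assay conditions: 2 μM ATP (radiolabelled), 20 μM PIP2, 3.4 nM PI3Kδ, 20 mM MOPS pH 6.7 with 10 mM MgCl2, 5 mM DTT, 0.03% CHAPS, 2 h at room temperature. Signal from bead-captured 33P product; IC50 versus solvent control.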

Chain of PI3Kγ (p110γ) Recombinant Human Protein (P48736 whole entry): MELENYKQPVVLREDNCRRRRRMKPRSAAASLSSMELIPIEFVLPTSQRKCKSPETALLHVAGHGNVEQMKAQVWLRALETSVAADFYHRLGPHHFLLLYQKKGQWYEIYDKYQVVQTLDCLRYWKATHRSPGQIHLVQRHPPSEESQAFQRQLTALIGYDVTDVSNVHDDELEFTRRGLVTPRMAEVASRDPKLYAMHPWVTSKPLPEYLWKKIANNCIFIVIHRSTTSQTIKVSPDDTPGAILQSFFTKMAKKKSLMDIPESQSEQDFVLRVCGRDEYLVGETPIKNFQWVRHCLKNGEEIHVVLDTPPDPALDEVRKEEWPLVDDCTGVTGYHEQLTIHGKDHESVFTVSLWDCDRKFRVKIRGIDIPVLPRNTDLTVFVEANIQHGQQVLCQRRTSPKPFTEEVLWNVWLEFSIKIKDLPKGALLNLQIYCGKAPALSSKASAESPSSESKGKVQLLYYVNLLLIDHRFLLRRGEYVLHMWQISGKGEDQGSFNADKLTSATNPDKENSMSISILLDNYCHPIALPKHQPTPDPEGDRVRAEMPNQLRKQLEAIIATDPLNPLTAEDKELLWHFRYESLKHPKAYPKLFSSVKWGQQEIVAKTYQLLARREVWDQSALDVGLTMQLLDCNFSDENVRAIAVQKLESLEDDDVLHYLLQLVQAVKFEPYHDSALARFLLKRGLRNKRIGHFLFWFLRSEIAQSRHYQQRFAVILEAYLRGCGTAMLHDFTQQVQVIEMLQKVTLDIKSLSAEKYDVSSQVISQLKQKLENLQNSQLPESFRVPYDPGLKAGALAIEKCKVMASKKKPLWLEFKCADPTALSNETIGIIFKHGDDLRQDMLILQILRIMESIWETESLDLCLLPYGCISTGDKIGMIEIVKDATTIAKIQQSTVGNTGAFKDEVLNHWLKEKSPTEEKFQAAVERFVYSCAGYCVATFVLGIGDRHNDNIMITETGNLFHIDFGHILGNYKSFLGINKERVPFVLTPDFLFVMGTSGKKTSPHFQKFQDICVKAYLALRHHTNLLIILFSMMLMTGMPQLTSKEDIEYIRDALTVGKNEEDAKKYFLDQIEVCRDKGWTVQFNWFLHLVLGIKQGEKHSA

| Compound | IC50 [1] | IC50 [2] | IC50 [3] | IC50 ([2]; Homo sapiens) |
| --- | --- | --- | --- | --- |
| N#CC12CCC(NS(=O)(=O)c3cc(-c4cnc5c(N)nc(C(F)(F)F)nn45)ccc3Cl)(C1)C2 [Example 414, 5-(4-Amino-2-(trifluoromethyl)imidazo[1,2-f][1,2,4]triazin-7-yl)-2-chloro-N-(4-cyanobicyclo[2.1.1]hexan-1-yl)benzenesulfonamide] | < 100 nM | 100 to 500 nM | < 100 nM | – |
| N#CC12CCC(NS(=O)(=O)c3cccc(-c4cnc5c(N)nc(C(F)(F)F)nn45)c3)(C1)C2 [Example 415, 3-(4-Amino-2-(trifluoromethyl)imidazo[1,2-f][1,2,4]triazin-7-yl)-N-(4-cyanobicyclo[2.1.1]hexan-1-yl)benzenesulfonamide trifluoroacetate salt] | < 100 nM | < 100 nM | 100 to 500 nM | – |
| Cc1c(F)cc(S(=O)(=O)NC23CCC(C#N)(C2)C3)cc1-c1cnc2c(N)nc(C(F)(F)F)nn12 [Example 416, 3-(4-Amino-2-(trifluoromethyl)imidazo[1,2-f][1,2,4]triazin-7-yl)-N-(4-cyanobicyclo[2.1.1]hexan-1-yl)-5-fluoro-4-methylbenzenesulfonamide trifluoroacetate salt] | < 100 nM | < 100 nM | 100 to 500 nM | – |
| N#CC12CCC(NS(=O)(=O)c3cc(-c4cnc5c(N)nc(C(F)(F)F)nn45)ccc3F)(C1)C2 [Example 417, 5-(4-Amino-2-(trifluoromethyl)imidazo[1,2-f][1,2,4]triazin-7-yl)-N-(4-cyanobicyclo[2.1.1]hexan-1-yl)-2-fluorobenzenesulfonamide trifluoroacetate salt] | < 100 nM | 500 to 1000 nM | 100 to 500 nM | – |
| Nc1nc(C(F)(F)F)nn2c(-c3ccc(F)c(S(=O)(=O)NC45CCC(CO)(C4)C5)c3)cnc12 [Example 418, 5-(4-Amino-2-(trifluoromethyl)imidazo[1,2-f][1,2,4]triazin-7-yl)-2-fluoro-N-(4-(hydroxymethyl)bicyclo[2.1.1]hexan-1-yl)benzenesulfonamide] | < 100 nM | > 1000 nM | 100 to 500 nM | – |
| C[C@]1(O)CC[C@H](NS(=O)(=O)c2cc(-c3cnc4c(N)nc(-c5ccccc5F)cn34)ccc2F)CC1 [Example 421, 5-(8-amino-6-(2-fluorophenyl)imidazo[1,2-a]pyrazin-3-yl)-2-fluoro-N-((1r,4r)-4-hydroxy-4-methylcyclohexyl)benzenesulfonamide] | < 100 nM | < 100 nM | < 100 nM | – |
| C[C@]1(O)CC[C@H](NS(=O)(=O)c2cc(-c3cnc4c(N)nc(-c5ccncc5F)cn34)ccc2F)CC1 [Example 422, 5-(8-amino-6-(3-fluoropyridin-4-yl)imidazo[1,2-a]pyrazin-3-yl)-2-fluoro-N-((1r,4r)-4-hydroxy-4-methylcyclohexyl)benzenesulfonamide] | < 100 nM | < 100 nM | < 100 nM | – |
| C[C@]1(O)CC[C@H](NS(=O)(=O)c2cc(-c3cnc4c(N)nc(-c5ccc(CO)cc5F)cn34)ccc2F)CC1 [Example 423, 5-(8-amino-6-(2-fluoro-4-(hydroxymethyl)phenyl)imidazo[1,2-a]pyrazin-3-yl)-2-fluoro-N-((1r,4r)-4-hydroxy-4-methylcyclohexyl)benzenesulfonamide] | < 100 nM | < 100 nM | < 100 nM | – |
| Cc1ccc(S(=O)(=O)NC23COC(C)(C2)C3)cc1-c1cnc2c(N)ncnn12 [Example 424, 3-(4-Aminoimidazo[1,2-f][1,2,4]triazin-7-yl)-4-methyl-N-(1-methyl-2-oxabicyclo[2.1.1]hexan-4-yl)benzenesulfonamide trifluoroacetate salt] | < 100 nM | – | 100 to 500 nM | 100 to 500 nM |
| Cc1ccc(S(=O)(=O)NC23COC(C)(C2)C3)cc1-c1cnc2c(N)nc(C(F)(F)F)cn12 [Example 425, 3-(8-Amino-6-(trifluoromethyl)imidazo[1,2-a]pyrazin-3-yl)-4-methyl-N-(1-methyl-2-oxabicyclo[2.1.1]hexan-4-yl)benzenesulfonamide trifluoroacetate salt] | < 100 nM | – | 100 to 500 nM | < 100 nM |
| [2H]C([2H])([2H])c1ccc(S(=O)(=O)NC23COC(C)(C2)C3)cc1-c1cnc2c(N)nc(C)nn12 [Example 426, 3-(4-Amino-2-methylimidazo[1,2-f][1,2,4]triazin-7-yl)-4-trideuteromethyl-N-(1-methyl-2-oxabicyclo[2.1.1]hexan-4-yl)benzenesulfonamide trifluoroacetate salt] | < 100 nM | – | 100 to 500 nM | 100 to 500 nM |
| Cc1ccc(S(=O)(=O)NC23COC(CO)(C2)C3)cc1-c1cnc2c(N)nc(C(F)(F)F)nn12 [Example 427, 3-(4-Amino-2-(trifluoromethyl)imidazo[1,2-f][1,2,4]triazin-7-yl)-N-(1-(hydroxymethyl)-2-oxabicyclo[2.1.1]hexan-4-yl)-4-methylbenzenesulfonamide trifluoroacetate salt] | < 100 nM | – | 100 to 500 nM | 100 to 500 nM |
| Cc1ccc(S(=O)(=O)NC23COC(CO)(C2)C3)cc1-c1cnc2c(N)nc(C(F)(F)F)cn12 [Example 428, 3-(8-amino-6-(trifluoromethyl)imidazo[1,2-a]pyrazin-3-yl)-N-(1-(hydroxymethyl)-2-oxabicyclo[2.1.1]hexan-4-yl)-4-methylbenzenesulfonamide trifluoroacetate salt] | < 100 nM | – | 100 to 500 nM | 100 to 500 nM |
| Cc1ccc(S(=O)(=O)NC23COC(C#N)(C2)C3)cc1-c1cnc2c(N)nc(C(F)(F)F)cn12 [Example 429, 3-(8-Amino-6-(trifluoromethyl)imidazo[1,2-a]pyrazin-3-yl)-N-(1-cyano-2-oxabicyclo[2.1.1]hexan-4-yl)-4-methylbenzenesulfonamide trifluoroacetate salt] | < 100 nM | – | 100 to 500 nM | 100 to 500 nM |
| Cc1ccc(S(=O)(=O)NC23CCC(CC#N)(CC2)C3)cc1-c1cnc2c(N)ncnn12 [Example 430, 3-(4-Aminoimidazo[1,2-f][1,2,4]triazin-7-yl)-N-((1s,4s)-4-(cyanomethyl)bicyclo[2.2.1]heptan-1-yl)-4-methylbenzenesulfonamide trifluoroacetate salt] | < 100 nM | – | 100 to 500 nM | 100 to 500 nM |
| Cc1ccc(S(=O)(=O)NC23CCC(C(C)(C)O)(CC2)C3)cc1-c1cnc2c(N)ncnn12 [Example 431, 3-(4-Aminoimidazo[1,2-f][1,2,4]triazin-7-yl)-N-(4-(2-hydroxypropan-2-yl)bicyclo[2.2.1]heptan-1-yl)-4-methylbenzenesulfonamide trifluoroacetate salt] | < 100 nM | – | 100 to 500 nM | 100 to 500 nM |
| Cc1ccc(S(=O)(=O)NC23CCC(CO)(CC2)OC3)cc1-c1cnc2c(N)ncnn12 [Example 433, 3-(4-Aminoimidazo[1,2-f][1,2,4]triazin-7-yl)-N-(1-(hydroxymethyl)-2-oxabicyclo[2.2.2]octan-4-yl)-4-methylbenzenesulfonamide trifluoroacetate salt] | < 100 nM | – | 100 to 500 nM | 100 to 500 nM |
| Cc1ccc(S(=O)(=O)NC23CCC(CN4CCOCC4)(CC2)OC3)cc1-c1cnc2c(N)ncnn12 [Example 434, 3-(4-Aminoimidazo[1,2-f][1,2,4]triazin-7-yl)-4-methyl-N-(1-(morpholinomethyl)-2-oxabicyclo[2.2.2]octan-4-yl)benzenesulfonamide trifluoroacetate salt] | < 100 nM | – | 100 to 500 nM | 100 to 500 nM |
| Cc1ccc(S(=O)(=O)NC23CCC(CN4CC(F)(F)C4)(CC2)OC3)cc1-c1cnc2c(N)ncnn12 [Example 435, 3-(4-Aminoimidazo[1,2-f][1,2,4]triazin-7-yl)-N-(1-((3,3-difluoroazetidin-1-yl)methyl)-2-oxabicyclo[2.2.2]octan-4-yl)-4-methylbenzenesulfonamide trifluoroacetate salt] | < 100 nM | – | 100 to 500 nM | 500 to 1000 nM |
| Cc1ccc(S(=O)(=O)NC23CCC(C(F)F)(CC2)OC3)cc1-c1cnc2c(N)ncnn12 [Example 436, 3-(4-aminoimidazo[1,2-f][1,2,4]triazin-7-yl)-N-(1-(difluoromethyl)-2-oxabicyclo[2.2.2]octan-4-yl)-4-methylbenzenesulfonamide trifluoroacetate salt] | < 100 nM | – | 100 to 500 nM | 100 to 500 nM |
| Cc1ccc(S(=O)(=O)NC23CCC(c4nccn4C)(CC2)OC3)cc1-c1cnc2c(N)ncnn12 [Example 439, 3-(4-Aminoimidazo[1,2-f][1,2,4]triazin-7-yl)-4-methyl-N-(1-(1-methyl-1H-imidazol-2-yl)-2-oxabicyclo[2.2.2]octan-4-yl)benzenesulfonamide trifluoroacetate salt] | < 100 nM | – | 500 to 2000 nM | 500 to 1000 nM |
| Cc1ccc(S(=O)(=O)NC23CCC(c4cnco4)(CC2)OC3)cc1-c1cnc2c(N)ncnn12 [Example 440, 3-(4-Aminoimidazo[1,2-f][1,2,4]triazin-7-yl)-4-methyl-N-(1-(oxazol-5-yl)-2-oxabicyclo[2.2.2]octan-4-yl)benzenesulfonamide trifluoroacetate salt] | < 100 nM | – | 100 to 500 nM | 100 to 500 nM |
